Drawing on patent US20250122225A1, “MASP-2 INHIBITORS AND METHODS OF USE” (Omeros Corporation, priority 2023, published 2025), this text covers Ki for 19 compounds.

For one assay, the target named is T1, MASP-2 (CCP1-CCP2-SP) (Homo sapiens, UniProt O00187).
T1 construct: 15 μL of Enzyme MASP-2 (CCP1-CCP2-SP) in Assay Buffer
The assay can be described thus: Enzymatic assay for MASP-2 inhibitory activity (fluorogenic substrate). It counts as biochemical. How it is done:
The MASP-2 assay utilizes a fluorogenic substrate, based on the cleavage site for its natural substrate C2. The assay was run at room temperature in an assay buffer containing 20 mM HEPES, pH 7.4, 140 mM NaCl and 0.1% Tween 20. Assay parameters were adjusted such that the assay was linear with respect to time, enzyme, and substrate concentrations. Under the optimized assays conditions, IC50 values were equivalent to Ki values, except in the few cases of “tight binding” inhibitors. Cases of “tight binding” or possible “slow binding” inhibitors were handled by the methods described in Copeland R. A. (2013) Evaluation of Enzyme Inhibitors in Drug Discovery. 2nd Ed., John Wiley and Sons, Inc., Chapters 5-7.
The MASP-2 assay protocol was carried out as follows. Test compounds were serially diluted in DMSO and then 100 nL of each dilution was transferred to the assay plate(s). 10 μL of Assay Buffer was added, followed by 15 μL of Enzyme MASP-2 (CCP1-CCP2-SP) in Assay Buffer. 15 μL of Substrate in Assay Buffer was then added and the mixture was mixed to start the reaction. After 20 min at room temperature, 15 μL of a stop solution (0.1 M acetic acid) was added, the sample was mixed, and the plates were read on a SpectraMax i3x Microplate Reader with the data exported as an Excel file. Each assay plate included a “no inhibitor” (DMSO only) control, a “no enzyme” control, and a reference inhibitor control. % Activity values=100*(average test comp. fluorescence−average “no enzyme” fluorescence)/(average “DMSO only” fluorescence−average “no enzyme” fluorescence). IC50 and Ki replicate values were very reproducible, with values well within ±2-fold.

For a further assay, the target named is T2, human α-thrombin (Homo sapiens, UniProt P00734).
T2 construct: enzyme (human α-thrombin (BioPharm® Lab.)) in assay buffer; purchased BioPharm® Lab
The experiment in a line: Enzymatic assay for thrombin (fluorogenic peptide substrate Boc-VPR-AMC). It counts as biochemical. The method, then:
The thrombin assay utilizes a fluorogenic peptide substrate (Boc-VPR-AMC (R&D Systems) and was run at room temperature in an assay buffer containing 20 mM Hepes, pH 7.4, 140 mM NaCl and 0.1% Tween 20. Assay parameters were adjusted such that the assay was linear with respect to time, enzyme, and substrate concentrations. Under these optimized assays conditions, IC50 values were equivalent to Ki values, except in a few cases of “tight binding” inhibitors. Cases of “tight binding” or possible “slow binding” inhibitors were handled by the methods described in Copeland R. A. (2013) Evaluation of Enzyme Inhibitors in Drug Discovery. 2nd Ed. John Wiley and Sons, Inc., Chapters 5-7.
The thrombin assay protocol was carried out as follows. Test compounds were serially diluted in DMSO and then 100 nL of each dilution was transferred to the assay plate(s). 10 μL of Assay Buffer was added, followed by 15 μL of enzyme (human α-thrombin (BioPharm® Lab.)) in assay buffer. 15 μL of substrate in assay buffer was then added and the sample mixed to start the reaction. After 20 min at room temperature, 15 μL of a stop solution (0.1 M acetic acid) was added, the sample was mixed, and the plates were read on a SpectraMax® i3x Microplate Reader with the data exported as Excel files. Each assay plate included a “no inhibitor” (DMSO only) control, a “no enzyme” control, and a reference inhibitor control. % Activity values=100*(ave. test comp. fluorescence−ave. “no enz” fluorescence)/(ave. “DMSO only” fluorescence−ave. “no enz” fluorescence). IC50 and Ki values were very reproducible, with values falling well within ±2-fold.

Where a name gives a salt, the structure may show the parent alone.

T1 sequence (O00187 445-686 limits assumed): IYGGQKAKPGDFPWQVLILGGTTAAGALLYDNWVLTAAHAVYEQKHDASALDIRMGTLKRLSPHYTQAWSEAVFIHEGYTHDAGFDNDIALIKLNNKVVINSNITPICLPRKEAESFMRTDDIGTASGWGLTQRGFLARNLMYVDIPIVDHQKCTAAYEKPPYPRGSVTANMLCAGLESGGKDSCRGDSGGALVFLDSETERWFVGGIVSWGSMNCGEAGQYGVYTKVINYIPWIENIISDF
T1 sequence (O00187 287-444 partner limits assumed): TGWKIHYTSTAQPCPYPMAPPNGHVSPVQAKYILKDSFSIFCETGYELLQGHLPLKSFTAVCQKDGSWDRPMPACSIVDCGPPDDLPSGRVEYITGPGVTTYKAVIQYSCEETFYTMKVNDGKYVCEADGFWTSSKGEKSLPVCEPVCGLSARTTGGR

For `Cc1cc(C)cc(CNc2ncc3n(c2=O)[C@H](C(=O)NC(C)c2cc(Cl)ccc2-n2cnnn2)CC3)c1` (mixture of isomers) [Compound 283, (S)—N—((R/S)-1-(5-chloro-2-(1H-tetrazol-1-yl)phenyl)ethyl)-3-((3,5-dimethylbenzyl)amino)-4-oxo-4,6,7,8-tetrahydropyrrolo[1,2-a]pyrazine-6-carboxamide], the Ki at MASP-2 (CCP1-CCP2-SP) and on human α-thrombin was under 500 nM in each case.
Regarding `Cc1cc(C)cc(CNc2nc(Cl)c3n(c2=O)[C@H](C(=O)NCc2cc4cnccc4[nH]2)CC3)c1` [Compound 1, (S)—N-((1H-pyrrolo[3,2-c]pyridin-2-yl)methyl)-1-chloro-3-((3,5-dimethylbenzyl)amino)-4-oxo-4,6,7,8-tetrahydropyrrolo[1,2-a]pyrazine-6-carboxamide], the values for the Ki on MASP-2 (CCP1-CCP2-SP) and at human α-thrombin were under 500 nM and 10000 to 25000 nM, respectively.
As for `COCCCCNc1nc(Cl)c2n(c1=O)[C@H](C(=O)NCc1ccc(N)nc1C)CC2` [Compound 2, (S)-N-((6-amino-2-methylpyridin-3-yl)methyl)-1-chloro-3-((4-methoxybutyl)amino)-4-oxo-4,6,7,8-tetrahydropyrrolo[1,2-a]pyrazine-6-carboxamide], the Ki (as a rule, a measure of affinity in units of concentration, obtained from inhibition or displacement) was under 500 nM on MASP-2 (CCP1-CCP2-SP) and 2500 to 10000 nM at human α-thrombin.
For the compound `CCc1cccc(CNc2nc(Cl)c3n(c2=O)[C@H](C(=O)NCc2cc4cnccc4[nH]2)CC3)c1` [Compound 3, (S)-N-((1H-pyrrolo[3,2-c]pyridin-2-yl)methyl)-1-chloro-3-((3-ethylbenzyl)amino)-4-oxo-4,6,7,8-tetrahydropyrrolo[1,2-a]pyrazine-6-carboxamide], the Ki at MASP-2 (CCP1-CCP2-SP) was under 500 nM; on human α-thrombin, 2500 to 10000 nM.
For the compound `CCc1cccc(CNc2nc(Cl)c3n(c2=O)[C@H](C(=O)NCc2ccc(N)nc2C)CC3)c1` [Compound 4], the results for the Ki at MASP-2 (CCP1-CCP2-SP) and on human α-thrombin were under 500 nM and 500 to 2500 nM, respectively.
Turning to `Cc1nc(N)ccc1CNC(=O)[C@@H]1CCc2c(Cl)nc(NCc3cccc(CO)c3)c(=O)n21` [Compound 5, (S)-N-((6-amino-2-methylpyridin-3-yl)methyl)-1-chloro-3-((3-(hydroxymethyl)benzyl)amino)-4-oxo-4,6,7,8-tetrahydropyrrolo[1,2-a]pyrazine-6-carboxamide], the inhibition constant (Ki) at MASP-2 (CCP1-CCP2-SP) was under 500 nM; on human α-thrombin it was 500 to 2500 nM.
`O=C(NCc1cc2cnccc2[nH]1)[C@@H]1CCc2c(Cl)nc(NCc3cccc(CO)c3)c(=O)n21` [Compound 6, (S)-N-((1H-pyrrolo[3,2-c]pyridin-2-yl)methyl)-1-chloro-3-((3-(hydroxymethyl)benzyl)amino)-4-oxo-4,6,7,8-tetrahydropyrrolo[1,2-a]pyrazine-6-carboxamide]: the Ki was under 500 nM on MASP-2 (CCP1-CCP2-SP) and 2500 to 10000 nM on human α-thrombin.
With `COc1cc(C)cc(CNc2nc(Cl)c3n(c2=O)[C@H](C(=O)NCc2cc4cnccc4[nH]2)CC3)c1` [Compound 7, (S)-N-((1H-pyrrolo[3,2-c]pyridin-2-yl)methyl)-1-chloro-3-((3-methoxy-5-methylbenzyl)amino)-4-oxo-4,6,7,8-tetrahydropyrrolo[1,2-a]pyrazine-6-carboxamide], the figures for the Ki on MASP-2 (CCP1-CCP2-SP) and on human α-thrombin were under 500 nM and 2500 to 10000 nM, respectively.
The matching figures for `COc1cc(C)cc(CNc2nc(Cl)c3n(c2=O)[C@H](C(=O)NCc2ccc(N)nc2C)CC3)c1` [Compound 8, (S)-N-((6-amino-2-methylpyridin-3-yl)methyl)-1-chloro-3-((3-methoxy-5-methylbenzyl)amino)-4-oxo-4,6,7,8-tetrahydropyrrolo[1,2-a]pyrazine-6-carboxamide]: under 500 nM and 500 to 2500 nM.
For `Cc1ccccc1CNc1nc(Cl)c2n(c1=O)[C@H](C(=O)NCc1cc3cnccc3[nH]1)CC2` [Compound 9, (S)-N-((1H-pyrrolo[3,2-c]pyridin-2-yl)methyl)-1-chloro-3-((2-methylbenzyl)amino)-4-oxo-4,6,7,8-tetrahydropyrrolo[1,2-a]pyrazine-6-carboxamide], the Ki is under 500 nM on MASP-2 (CCP1-CCP2-SP) and 2500 to 10000 nM at human α-thrombin.
On to `Cc1ccc(C)c(CNc2nc(Cl)c3n(c2=O)[C@H](C(=O)NCc2ccc(N)nc2C)CC3)c1` [Compound 10, (S)-N-((6-amino-2-methylpyridin-3-yl)methyl)-1-chloro-3-((2,5-dimethylbenzyl)amino)-4-oxo-4,6,7,8-tetrahydropyrrolo[1,2-a]pyrazine-6-carboxamide], for which the figures for the Ki on MASP-2 (CCP1-CCP2-SP) and on human α-thrombin were under 500 nM and 500 to 2500 nM, respectively.
Consider `Cc1ccc(C)c(CNc2nc(Cl)c3n(c2=O)[C@H](C(=O)NCc2cc4cnccc4[nH]2)CC3)c1` [Compound 11, (S)-N-((1H-pyrrolo[3,2-c]pyridin-2-yl)methyl)-1-chloro-3-((2,5-dimethylbenzyl)amino)-4-oxo-4,6,7,8-tetrahydropyrrolo[1,2-a]pyrazine-6-carboxamide], for which the Ki on MASP-2 (CCP1-CCP2-SP) was under 500 nM; on human α-thrombin, 10000 to 25000 nM.
`Cc1cccc(CNc2nc(Cl)c3n(c2=O)[C@H](C(=O)NCc2ccc(N)nc2C)CC3)c1F` [Compound 12, (S)-N-((6-amino-2-methylpyridin-3-yl)methyl)-1-chloro-3-((2-fluoro-3-methylbenzyl)amino)-4-oxo-4,6,7,8-tetrahydropyrrolo[1,2-a]pyrazine-6-carboxamide]: the Ki at MASP-2 (CCP1-CCP2-SP) was under 500 nM; on human α-thrombin, 2500 to 10000 nM.
As for `Cc1cccc(CNc2nc(Cl)c3n(c2=O)[C@H](C(=O)NCc2cc4cnccc4[nH]2)CC3)c1F` [Compound 13, (S)-N-((1H-pyrrolo[3,2-c]pyridin-2-yl)methyl)-1-chloro-3-((2-fluoro-3-methylbenzyl)amino)-4-oxo-4,6,7,8-tetrahydropyrrolo[1,2-a]pyrazine-6-carboxamide], the Ki was under 500 nM at MASP-2 (CCP1-CCP2-SP) and 10000 to 25000 nM at human α-thrombin.
The corresponding values for `Cc1cccc(CNc2nc(Cl)c3n(c2=O)[C@H](C(=O)NCc2cc4cnccc4[nH]2)CC3)c1C` [Compound 15, (S)-N-((1H-pyrrolo[3,2-c]pyridin-2-yl)methyl)-1-chloro-3-((2,3-dimethylbenzyl)amino)-4-oxo-4,6,7,8-tetrahydropyrrolo[1,2-a]pyrazine-6-carboxamide] are under 500 nM and 2500 to 10000 nM.
In the case of `Cc1nc(N)ccc1CNC(=O)[C@@H]1CCc2c(Cl)nc(NCc3cccc(C(F)F)c3)c(=O)n21` [Compound 16, (S)-N-((6-amino-2-methylpyridin-3-yl)methyl)-1-chloro-3-((3-(difluoromethyl)benzyl)amino)-4-oxo-4,6,7,8-tetrahydropyrrolo[1,2-a]pyrazine-6-carboxamide], the Ki on MASP-2 (CCP1-CCP2-SP) was under 500 nM; at human α-thrombin, 2500 to 10000 nM.
Take `O=C(NCc1cc2cnccc2[nH]1)[C@@H]1CCc2c(Cl)nc(NCc3cccc(C(F)F)c3)c(=O)n21` [Compound 17, (S)-N-((1H-pyrrolo[3,2-c]pyridin-2-yl)methyl)-1-chloro-3-((3-(difluoromethyl)benzyl)amino)-4-oxo-4,6,7,8-tetrahydropyrrolo[1,2-a]pyrazine-6-carboxamide]: the values for the Ki on MASP-2 (CCP1-CCP2-SP) and on human α-thrombin were under 500 nM and 10000 to 25000 nM, respectively.
`Cc1nc(N)ccc1CNC(=O)[C@@H]1CCc2c(Cl)nc(NCCC(F)F)c(=O)n21` [Compound 18, (S)-N-((6-amino-2-methylpyridin-3-yl)methyl)-1-chloro-3-((3,3-difluoropropyl)amino)-4-oxo-4,6,7,8-tetrahydropyrrolo[1,2-a]pyrazine-6-carboxamide]: the figures for the Ki on MASP-2 (CCP1-CCP2-SP) and at human α-thrombin were under 500 nM and 2500 to 10000 nM, respectively.
At human α-thrombin, `COc1ccnc(CNC(=O)[C@@H]2CCc3cnc(NCc4cc(C)cc(F)c4)c(=O)n32)c1F` [Compound 190, (S)-N-((3-fluoro-4-methoxypyridin-2-yl)methyl)-3-((3-fluoro-5-methylbenzyl)amino)-4-oxo-4,6,7,8-tetrahydropyrrolo[1,2-a]pyrazine-6-carboxamide trifluoroacetate] had a Ki of 2500 to 10000 nM.
